Read-outs that look alike come from different tables or passages of the source.
Columns and labels:
Assay in all cases: biochemical
[1] = target: T1, panel of 374 wild-type kinases (Homo sapiens, UniProt P00519); details: read-out: % Enzyme Activity (relative to DMSO controls), ABL1
T1 construct: purchased Reaction Biology Corporation

[2] = target: T2, panel of 374 wild-type kinases (Homo sapiens, UniProt P17612); details: read-out: % Enzyme Activity (relative to DMSO controls), kinase PKA
T2 construct: purchased Reaction Biology Corporation

[3] = target: T3, panel of 374 wild-type kinases (Homo sapiens, UniProt P22694); details: read-out: % Enzyme Activity (relative to DMSO controls), kinase PKAcb
T3 construct: purchased Reaction Biology Corporation

[4] = target: T4, panel of 374 wild-type kinases (Homo sapiens, UniProt P34947); details: read-out: % Enzyme Activity (relative to DMSO controls), GRK5
T4 construct: purchased Reaction Biology Corporation

[5] = target: T5, panel of 374 wild-type kinases (Homo sapiens, UniProt P42684); details: read-out: % Enzyme Activity (relative to DMSO controls), ABL2/ARG
T5 construct: purchased Reaction Biology Corporation

[6] = target: T6, panel of 374 wild-type kinases (Homo sapiens, UniProt P51955); details: read-out: % Enzyme Activity (relative to DMSO controls), NEK2
T6 construct: purchased Reaction Biology Corporation
T6 sequence (P51955 1-445): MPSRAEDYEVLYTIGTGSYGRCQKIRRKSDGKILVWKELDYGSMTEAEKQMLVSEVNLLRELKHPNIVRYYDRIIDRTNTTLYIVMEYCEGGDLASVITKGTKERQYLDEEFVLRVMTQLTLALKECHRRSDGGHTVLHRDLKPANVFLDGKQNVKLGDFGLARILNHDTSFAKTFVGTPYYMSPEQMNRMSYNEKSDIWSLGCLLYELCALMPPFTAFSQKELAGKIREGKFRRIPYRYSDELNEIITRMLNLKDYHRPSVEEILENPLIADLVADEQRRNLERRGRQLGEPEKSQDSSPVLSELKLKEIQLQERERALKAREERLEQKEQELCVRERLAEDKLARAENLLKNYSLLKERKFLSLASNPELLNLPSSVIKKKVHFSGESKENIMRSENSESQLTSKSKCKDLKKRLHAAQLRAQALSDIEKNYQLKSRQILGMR

[7] = target: T7, panel of 374 wild-type kinases (Homo sapiens, UniProt Q00526)
T7 construct: purchased Reaction Biology Corporation

[8] = target: T8, panel of 374 wild-type kinases (Homo sapiens, UniProt Q00536); details: read-out: % Enzyme Activity (relative to DMSO controls), CDK16/cyclin Y (PCTAIRE)
T8 construct: purchased Reaction Biology Corporation

[9] = target: T9, panel of 374 wild-type kinases (Homo sapiens, UniProt Q04912); details: read-out: % Enzyme Activity (relative to DMSO controls), kinase RON/MST1R
T9 construct: purchased Reaction Biology Corporation

[10] = target: T10, panel of 374 wild-type kinases (Homo sapiens, UniProt Q13164); details: read-out: % Enzyme Activity (relative to DMSO controls), ERK5/MAPK7
T10 construct: purchased Reaction Biology Corporation

[11] = target: T11, panel of 374 wild-type kinases (Homo sapiens, UniProt Q16512); details: read-out: % Enzyme Activity (relative to DMSO controls), kinase PKN1/PRK1
T11 construct: purchased Reaction Biology Corporation

[12] = target: T12, panel of 374 wild-type kinases (Homo sapiens, UniProt Q8IU85); details: read-out: % Enzyme Activity (relative to DMSO controls), CAMK1d
T12 construct: purchased Reaction Biology Corporation

[13] = target: T13, panel of 374 wild-type kinases (Homo sapiens, UniProt Q8TDC3); details: read-out: % Enzyme Activity (relative to DMSO controls), BRSK1
T13 construct: purchased Reaction Biology Corporation
T13 sequence (Q8TDC3 1-778): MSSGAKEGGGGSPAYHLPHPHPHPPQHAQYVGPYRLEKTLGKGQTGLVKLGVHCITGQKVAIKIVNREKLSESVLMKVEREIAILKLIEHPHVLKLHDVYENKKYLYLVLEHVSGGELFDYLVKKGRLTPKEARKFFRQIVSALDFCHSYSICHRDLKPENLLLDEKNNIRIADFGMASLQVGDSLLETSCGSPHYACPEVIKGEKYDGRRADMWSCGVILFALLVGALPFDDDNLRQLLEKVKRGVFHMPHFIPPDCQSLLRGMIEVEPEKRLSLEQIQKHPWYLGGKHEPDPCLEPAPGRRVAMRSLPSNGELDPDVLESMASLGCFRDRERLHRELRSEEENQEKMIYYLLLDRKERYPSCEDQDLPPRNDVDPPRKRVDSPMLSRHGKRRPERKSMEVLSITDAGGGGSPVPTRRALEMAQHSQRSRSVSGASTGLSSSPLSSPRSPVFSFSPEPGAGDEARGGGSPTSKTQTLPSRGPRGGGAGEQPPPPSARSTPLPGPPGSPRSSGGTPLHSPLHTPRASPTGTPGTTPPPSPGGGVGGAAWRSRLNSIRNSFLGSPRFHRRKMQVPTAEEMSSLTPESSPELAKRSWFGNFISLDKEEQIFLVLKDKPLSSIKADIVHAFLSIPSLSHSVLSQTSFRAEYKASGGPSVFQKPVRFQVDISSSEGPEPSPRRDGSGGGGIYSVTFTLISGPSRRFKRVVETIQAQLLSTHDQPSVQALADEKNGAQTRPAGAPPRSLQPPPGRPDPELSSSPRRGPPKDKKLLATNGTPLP

[14] = target: T14, panel of 374 wild-type kinases (Homo sapiens, UniProt Q9H4A3); details: read-out: % Enzyme Activity (relative to DMSO controls), kinase WNK1
T14 construct: purchased Reaction Biology Corporation

[15] = target: T15, panel of 374 wild-type kinases (Homo sapiens, UniProt Q9Y3S1); details: read-out: % Enzyme Activity (relative to DMSO controls), kinase WNK2
T15 construct: purchased Reaction Biology Corporation

[16] = read-out: % Enzyme Activity (relative to DMSO controls), CDK3/cyclin E2
[17] = read-out: % Enzyme Activity (relative to DMSO controls), CDK3/cyclin E

T1 sequence (P00519 whole entry): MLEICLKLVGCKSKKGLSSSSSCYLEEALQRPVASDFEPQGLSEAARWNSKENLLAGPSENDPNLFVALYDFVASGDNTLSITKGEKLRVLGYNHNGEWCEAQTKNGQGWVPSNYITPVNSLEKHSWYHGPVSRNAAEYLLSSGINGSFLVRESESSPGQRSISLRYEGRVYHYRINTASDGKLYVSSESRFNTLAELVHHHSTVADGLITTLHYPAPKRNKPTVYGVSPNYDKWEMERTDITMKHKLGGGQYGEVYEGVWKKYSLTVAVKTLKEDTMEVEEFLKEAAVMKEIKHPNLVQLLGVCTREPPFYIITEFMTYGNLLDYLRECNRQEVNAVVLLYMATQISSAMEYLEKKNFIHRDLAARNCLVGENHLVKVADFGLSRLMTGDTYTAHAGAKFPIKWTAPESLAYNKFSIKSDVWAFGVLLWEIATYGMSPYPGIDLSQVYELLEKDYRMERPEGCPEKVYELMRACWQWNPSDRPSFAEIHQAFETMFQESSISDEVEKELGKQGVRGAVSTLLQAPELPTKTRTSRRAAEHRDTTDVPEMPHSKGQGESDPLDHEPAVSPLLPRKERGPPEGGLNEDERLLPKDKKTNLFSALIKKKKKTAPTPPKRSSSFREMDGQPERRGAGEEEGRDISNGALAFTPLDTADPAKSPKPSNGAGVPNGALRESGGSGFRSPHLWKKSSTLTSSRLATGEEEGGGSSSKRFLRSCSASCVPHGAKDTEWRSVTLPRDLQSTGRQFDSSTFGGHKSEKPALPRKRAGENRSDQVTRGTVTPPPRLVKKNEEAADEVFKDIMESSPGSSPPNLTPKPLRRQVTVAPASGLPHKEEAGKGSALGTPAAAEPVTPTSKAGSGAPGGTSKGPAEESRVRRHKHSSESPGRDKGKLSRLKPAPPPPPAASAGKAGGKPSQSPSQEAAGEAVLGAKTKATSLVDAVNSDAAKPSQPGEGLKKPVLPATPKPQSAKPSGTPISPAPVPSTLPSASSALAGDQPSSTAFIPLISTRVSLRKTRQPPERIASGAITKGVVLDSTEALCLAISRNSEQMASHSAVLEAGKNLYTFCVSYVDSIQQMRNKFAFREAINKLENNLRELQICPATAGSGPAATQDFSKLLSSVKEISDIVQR
T4 sequence (P34947 whole entry): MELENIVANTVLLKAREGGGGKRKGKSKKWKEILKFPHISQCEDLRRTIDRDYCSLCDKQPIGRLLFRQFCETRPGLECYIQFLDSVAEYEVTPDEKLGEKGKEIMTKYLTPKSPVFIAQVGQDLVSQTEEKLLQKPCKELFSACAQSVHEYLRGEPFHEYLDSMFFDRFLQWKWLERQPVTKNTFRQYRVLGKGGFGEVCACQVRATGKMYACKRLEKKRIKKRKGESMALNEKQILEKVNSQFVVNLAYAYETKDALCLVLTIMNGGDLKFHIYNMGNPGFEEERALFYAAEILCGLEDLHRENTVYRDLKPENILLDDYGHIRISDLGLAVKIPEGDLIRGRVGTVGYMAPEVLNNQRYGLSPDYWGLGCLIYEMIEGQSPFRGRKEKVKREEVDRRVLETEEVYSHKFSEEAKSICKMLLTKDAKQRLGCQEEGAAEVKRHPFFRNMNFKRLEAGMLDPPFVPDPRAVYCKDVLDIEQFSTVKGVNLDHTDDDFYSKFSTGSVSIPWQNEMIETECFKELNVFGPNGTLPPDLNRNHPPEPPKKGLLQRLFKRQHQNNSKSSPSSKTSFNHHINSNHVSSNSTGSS
T12 sequence (Q8IU85 whole entry): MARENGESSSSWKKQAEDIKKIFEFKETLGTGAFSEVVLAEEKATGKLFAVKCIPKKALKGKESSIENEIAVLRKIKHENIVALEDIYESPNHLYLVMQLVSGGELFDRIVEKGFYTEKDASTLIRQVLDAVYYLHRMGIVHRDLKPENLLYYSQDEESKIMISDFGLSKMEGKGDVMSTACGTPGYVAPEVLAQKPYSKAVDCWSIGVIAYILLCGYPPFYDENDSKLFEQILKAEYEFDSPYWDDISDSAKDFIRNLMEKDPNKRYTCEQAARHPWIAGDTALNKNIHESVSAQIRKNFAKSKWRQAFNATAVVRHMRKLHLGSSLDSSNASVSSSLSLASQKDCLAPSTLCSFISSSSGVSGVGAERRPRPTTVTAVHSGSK
T15 sequence (Q9Y3S1 whole entry): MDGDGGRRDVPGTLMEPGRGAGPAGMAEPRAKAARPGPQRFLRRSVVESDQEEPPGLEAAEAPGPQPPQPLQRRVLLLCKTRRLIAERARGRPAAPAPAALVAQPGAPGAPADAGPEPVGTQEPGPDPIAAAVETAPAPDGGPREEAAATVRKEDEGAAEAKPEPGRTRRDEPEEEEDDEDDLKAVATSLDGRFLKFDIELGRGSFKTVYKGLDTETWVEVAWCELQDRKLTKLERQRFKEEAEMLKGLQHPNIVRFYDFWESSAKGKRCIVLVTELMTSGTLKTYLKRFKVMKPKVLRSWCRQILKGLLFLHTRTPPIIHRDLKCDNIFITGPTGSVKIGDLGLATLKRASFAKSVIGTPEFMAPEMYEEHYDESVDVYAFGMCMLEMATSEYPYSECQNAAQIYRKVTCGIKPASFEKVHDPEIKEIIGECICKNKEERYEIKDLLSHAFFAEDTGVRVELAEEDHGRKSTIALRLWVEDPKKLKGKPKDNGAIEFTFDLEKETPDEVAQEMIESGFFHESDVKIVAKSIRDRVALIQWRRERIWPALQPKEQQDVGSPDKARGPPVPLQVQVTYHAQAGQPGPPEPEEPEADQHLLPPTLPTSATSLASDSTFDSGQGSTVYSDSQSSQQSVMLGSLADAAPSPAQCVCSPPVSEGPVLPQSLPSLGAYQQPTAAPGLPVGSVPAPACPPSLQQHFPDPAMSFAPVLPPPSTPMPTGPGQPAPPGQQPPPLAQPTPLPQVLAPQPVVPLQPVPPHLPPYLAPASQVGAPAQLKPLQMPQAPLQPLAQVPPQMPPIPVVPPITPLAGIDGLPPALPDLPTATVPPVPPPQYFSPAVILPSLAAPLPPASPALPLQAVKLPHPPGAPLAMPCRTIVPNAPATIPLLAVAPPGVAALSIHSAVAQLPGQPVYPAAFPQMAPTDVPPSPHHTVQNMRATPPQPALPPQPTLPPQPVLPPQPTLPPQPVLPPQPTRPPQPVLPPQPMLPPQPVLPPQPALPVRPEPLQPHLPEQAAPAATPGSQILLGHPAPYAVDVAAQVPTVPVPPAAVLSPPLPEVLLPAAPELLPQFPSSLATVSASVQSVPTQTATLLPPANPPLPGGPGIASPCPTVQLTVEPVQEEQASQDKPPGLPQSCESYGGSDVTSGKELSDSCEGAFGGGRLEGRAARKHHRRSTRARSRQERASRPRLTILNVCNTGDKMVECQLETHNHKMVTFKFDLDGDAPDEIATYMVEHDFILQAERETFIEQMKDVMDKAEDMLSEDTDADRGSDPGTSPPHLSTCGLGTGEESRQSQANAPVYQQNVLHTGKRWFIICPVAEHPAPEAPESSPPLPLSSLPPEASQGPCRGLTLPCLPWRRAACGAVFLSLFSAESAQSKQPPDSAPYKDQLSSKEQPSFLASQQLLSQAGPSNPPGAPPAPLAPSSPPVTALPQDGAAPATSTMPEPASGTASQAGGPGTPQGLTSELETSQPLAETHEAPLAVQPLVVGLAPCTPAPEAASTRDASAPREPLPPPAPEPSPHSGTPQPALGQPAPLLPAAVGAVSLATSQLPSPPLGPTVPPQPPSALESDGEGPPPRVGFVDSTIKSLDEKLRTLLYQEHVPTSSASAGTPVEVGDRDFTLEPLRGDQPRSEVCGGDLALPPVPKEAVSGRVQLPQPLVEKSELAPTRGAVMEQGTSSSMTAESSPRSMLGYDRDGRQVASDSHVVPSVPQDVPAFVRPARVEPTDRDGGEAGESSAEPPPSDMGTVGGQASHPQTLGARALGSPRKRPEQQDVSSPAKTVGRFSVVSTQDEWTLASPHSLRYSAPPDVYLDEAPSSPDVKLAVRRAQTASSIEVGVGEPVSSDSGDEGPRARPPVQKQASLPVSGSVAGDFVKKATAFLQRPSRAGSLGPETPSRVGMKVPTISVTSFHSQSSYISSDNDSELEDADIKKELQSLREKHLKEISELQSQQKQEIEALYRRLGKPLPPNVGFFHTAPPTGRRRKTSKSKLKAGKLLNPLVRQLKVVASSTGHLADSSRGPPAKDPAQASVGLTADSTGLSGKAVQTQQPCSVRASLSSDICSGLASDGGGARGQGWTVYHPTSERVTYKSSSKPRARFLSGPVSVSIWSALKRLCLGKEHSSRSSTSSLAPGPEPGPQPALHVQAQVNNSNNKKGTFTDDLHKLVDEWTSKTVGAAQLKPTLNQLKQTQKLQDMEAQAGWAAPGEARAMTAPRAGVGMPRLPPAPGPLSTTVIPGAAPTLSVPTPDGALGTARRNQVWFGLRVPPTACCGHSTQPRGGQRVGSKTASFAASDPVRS
T7 sequence (Q00526 whole entry): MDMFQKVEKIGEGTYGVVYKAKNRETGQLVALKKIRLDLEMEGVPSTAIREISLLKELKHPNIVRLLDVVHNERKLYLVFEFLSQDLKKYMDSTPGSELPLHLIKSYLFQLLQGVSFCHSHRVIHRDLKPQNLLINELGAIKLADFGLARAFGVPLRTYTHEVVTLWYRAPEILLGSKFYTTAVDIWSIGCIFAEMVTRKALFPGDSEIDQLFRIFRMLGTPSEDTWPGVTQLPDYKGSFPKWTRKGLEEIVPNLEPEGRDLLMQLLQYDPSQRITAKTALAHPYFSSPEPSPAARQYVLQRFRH

For `O=C(Nc1cnn(-c2csc(C(=O)NC3COC3)c2)c1)Nc1ccccc1Cl` [Compound 17, 4-(4-(3-(2-chlorophenyl)ureido)-1H-pyrazol-1-yl)-N-(oxetan-3-yl)thiophene-2-carboxamide], the remaining activity at 5 µM [1] was 83.4%, the remaining activity at 5 µM [2] was 99.8% and the remaining activity at 5 µM [3] was 99%. The remaining activity at 5 µM [4] was 98%, the remaining activity at 5 µM [5] was 92.7% and the remaining activity at 5 µM [6] was 104%. For the same molecule, the remaining activity at 5 µM [7, 16] was 95.8%, the remaining activity at 5 µM [7, 17] was 107% and the remaining activity at 5 µM [8] was 94.8%. For the same molecule, the remaining activity at 5 µM [9] was 108%, the remaining activity at 5 µM [10] was 119% and the remaining activity at 5 µM [11] was 110%. For the same molecule, the remaining activity at 5 µM [12] was 104%, the remaining activity at 5 µM [13] was 85.5% and the remaining activity at 5 µM [14] was 99.7%. For the same molecule, the remaining activity at 5 µM [15] was 96.3%.

For `Cc1sc(C(=O)NC2COC2)cc1-n1cc(NC(=O)Nc2c(F)cccc2Cl)cn1` [Compound 27, 4-(4-(3-(2-chloro-6-fluorophenyl)ureido)-1H-pyrazol-1-yl)-5-methyl-N-(oxetan-3-yl)thiophene-2-carboxamide], the remaining activity at 10 µM ([1]; 10 uM) was 102%, the remaining activity at 10 µM ([2]; 10 uM) was 94.5% and the remaining activity at 10 µM ([3]; 10 uM) was 104%. The remaining activity at 10 µM ([4]; 10 uM) was 113%, the remaining activity at 10 µM ([5]; 10 uM) was 123% and the remaining activity at 10 µM ([6]; 10 uM) was 88%. For the same molecule, the remaining activity at 10 µM [7, 16] was 103%, the remaining activity at 10 µM [7, 17] was 91.2% and the remaining activity at 10 µM ([8]; 10 uM) was 102%. For the same molecule, the remaining activity at 10 µM ([9]; 10 uM) was 96.9%, the remaining activity at 10 µM ([10]; 10 uM) was 95.7% and the remaining activity at 10 µM ([11]; 10 uM) was 76.8%. It also gave a remaining activity at 10 µM ([12]; 10 uM) of 105%, a remaining activity at 10 µM ([13]; 10 uM) of 87.8% and a remaining activity at 10 µM ([14]; 10 uM) of 88.9%. The remaining activity at 10 µM ([15]; 10 uM) was 91.1%.

`O=C(Nc1cnn(-c2csc(C(=O)NC3COC3)c2)c1)Nc1c(F)cccc1Cl` [Compound 25, 4-(4-(3-(2-chloro-6-fluorophenyl)ureido)-1H-pyrazol-1-yl)-N-(oxetan-3-yl)thiophene-2-carboxamide] gave a remaining activity at 5 µM [1] of 101%, a remaining activity at 5 µM [2] of 108% and a remaining activity at 5 µM [3] of 98.3%. For the same molecule, the remaining activity at 5 µM [4] was 102%, the remaining activity at 5 µM [5] was 88.7% and the remaining activity at 5 µM [6] was 96.2%. The remaining activity at 5 µM [7, 16] was 109%, the remaining activity at 5 µM [7, 17] was 92.2% and the remaining activity at 5 µM [8] was 101%. The remaining activity at 5 µM [9] was 100%, the remaining activity at 5 µM [10] was 75.9% and the remaining activity at 5 µM [11] was 96.5%. For the same molecule, the remaining activity at 5 µM [12] was 99.6%, the remaining activity at 5 µM [13] was 99.4% and the remaining activity at 5 µM [14] was 93.3%. The remaining activity at 5 µM [15] was 91.9%.

From US20240246942A1, “KINASE INHIBITORS FOR THE TREATMENT OF NEURODEGENERATIVE DISEASES” (priority 2020, published 2024)
